# Biological target: T1, Axl (Homo sapiens, UniProt P30530)
# T1 construct: endogenous in cells; host or cells: HeLa cells
# T1 sequence (P30530 26-894): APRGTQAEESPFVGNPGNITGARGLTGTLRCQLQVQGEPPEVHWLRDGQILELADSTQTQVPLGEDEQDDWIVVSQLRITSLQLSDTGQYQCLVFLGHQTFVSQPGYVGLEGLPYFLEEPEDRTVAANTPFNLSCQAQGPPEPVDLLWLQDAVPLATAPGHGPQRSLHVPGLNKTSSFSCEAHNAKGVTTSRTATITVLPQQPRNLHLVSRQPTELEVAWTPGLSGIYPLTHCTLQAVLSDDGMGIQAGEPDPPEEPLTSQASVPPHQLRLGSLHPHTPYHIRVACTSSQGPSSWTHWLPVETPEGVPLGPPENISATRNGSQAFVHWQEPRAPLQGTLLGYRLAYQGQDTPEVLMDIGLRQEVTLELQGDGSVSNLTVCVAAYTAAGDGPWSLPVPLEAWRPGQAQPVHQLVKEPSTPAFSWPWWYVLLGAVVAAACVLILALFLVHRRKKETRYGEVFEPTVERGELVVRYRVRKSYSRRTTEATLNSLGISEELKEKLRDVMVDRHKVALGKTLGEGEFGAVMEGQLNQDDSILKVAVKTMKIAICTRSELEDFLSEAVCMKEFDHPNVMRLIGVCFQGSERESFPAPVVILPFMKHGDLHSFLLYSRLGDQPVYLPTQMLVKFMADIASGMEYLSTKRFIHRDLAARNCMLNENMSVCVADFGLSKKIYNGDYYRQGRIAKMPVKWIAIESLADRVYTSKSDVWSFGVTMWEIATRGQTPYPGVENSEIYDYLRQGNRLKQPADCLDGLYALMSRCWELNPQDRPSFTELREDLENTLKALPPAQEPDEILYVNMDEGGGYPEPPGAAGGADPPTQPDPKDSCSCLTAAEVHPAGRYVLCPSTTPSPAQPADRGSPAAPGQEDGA
# Experiment: Phospho-Akt in-cell Western assay (inhibition of Axl activity)
# Assay type: cell-based
# Conditions: Table 2; Hela cells, Axl antibody cross-linking stimulation, phospho-Akt chemiluminescence
# How it was run: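 HeLa cells on poly-L-lysine, starved 24 h in 0.5% FCS DMEM with Axl/Fc 500 ng/mL, pre-treated with compound 1 h at 37° C. Axl stimulated 5 min by anti-Axl/anti-mouse antibody cross-linking. Fixed cells probed with anti-phospho-Akt and HRP secondary, chemiluminescence read.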
row,IC50 [µM],Compound
1,> 20,"Nc1nc(Nc2ccc3c(c2)OCCO3)n(C(=O)c2cccc(OCc3ccccc3)c2)n1 [compound 155, 3-amino-1-(3-(benzyloxy)phenyl)carbonyl-5-(1,4-benzodioxan-6-yl)amino-1H-1,2,4-triazole]"
2,> 20,"Cc1cccc(C(=O)n2nc(N)nc2Nc2cccc(OCC(=O)NC3CCCCC3)c2)c1 [compound 164, 3-amino-5-[3-[cyclohexylaminocarbonylmethoxy]phenylamino]-1-(3-(methyl)phenyl)carbonyl-1H-1,2,4-triazole]"

# Same assay, conditions: Table 5; Hela cells, Axl antibody cross-linking stimulation, phospho-Akt chemiluminescence
row,IC50 [µM],Compound
1,1 to 10,"Cc1cccc(C(=O)n2nc(Nc3ccc4oc(COC5CCCCO5)cc4c3)nc2N)c1 (stereo not shown) [compound 130, 5-amino-3-[N-(2-(tetrahydropyran-2-yloxy)methylbenzofuran-5-yl)-amino]-1-(3-(methyl)phenyl)carbonyl-1H-1,2,4-triazole]"
2,1 to 10,"Cc1cccc(C(=O)n2nc(Nc3ccc4oc(CO)cc4c3)nc2N)c1 [compound 136, 5-amino-3-(2-(hydroxymethyl)benzofuran-5-yl)amino-1-(3-(methyl)phenyl)carbonyl-1H-1,2,4-triazole]"
3,1 to 10,"Cc1cccc(C(=O)n2nc(Nc3ccc4[nH]ncc4c3)nc2N)c1 [compound 154, 5-amino-3-(indazol-5-yl)amino-1-(3-(methyl)phenyl)carbonyl-1H-1,2,4-triazole]"
4,1 to 10,"Cc1cccc(C(=O)n2nc(Nc3ccc4cn[nH]c4c3)nc2N)c1 [compound 160, 5-amino-3-(indazol-6-yl)amino-1-(3-(methyl)phenyl)carbonyl-1H-1,2,4-triazole]"
5,> 20,"Cc1cccc(C(=O)n2nc(Nc3ccc4c(c3)NC(=O)CO4)nc2N)c1 [compound 161, 5-amino-3-(benzo[b][1,4]oxazin-3(4H)-on-6-yl)amino-1-(3-(methyl)phenyl)carbonyl-1H-1,2,4-triazole]"

# Same assay, conditions: inhibition of Axl activity, Table 1
row,IC50 [µM],Compound
1,1 to 10,"Cc1ccc(C(=O)n2nc(Nc3cccc(C)c3)nc2N)cc1 [compound 133, 5-amino-3-[3-(methyl)phenylamino]-1-(4-(methyl)phenyl)carbonyl-1H-1,2,4-triazole]"
2,1 to 10,"COc1cccc(Nc2nc(N)n(C(=O)c3ccc(C)cc3)n2)c1 [compound 134, 5-amino-3-[3-(methoxy)phenylamino]-1-(4-(methyl)phenyl)carbonyl-1H-1,2,4-triazole]"
3,1 to 10,"COC(=O)COc1cccc(C(=O)n2nc(Nc3ccc4c(c3)OCCO4)nc2N)c1 [compound 138, 5-amino-3-(1,4-benzodioxan-6-yl)amino-1-[3-(methoxycarbonylmethoxy)phenyl)carbonyl-1H-1,2,4-triazole]"
4,1 to 10,"CNC(=O)COc1cccc(Nc2nc(N)n(C(=O)c3cccc(C)c3)n2)c1 [compound 146, 5-amino-3-[3-(methylaminocarbonylmethoxy)phenylamino]-1-(3-(methyl)phenyl)carbonyl-1H-1,2,4-triazole]"
5,1 to 10,"COC(=O)COc1cccc(Nc2nc(N)n(C(=O)c3cccc(C)c3)n2)c1 [compound 147, 5-amino-3-[3-(methoxycarbonylmethoxy)phenylamino]-1-(3-(methyl)phenyl)carbonyl-1H-1,2,4-triazole]"
6,1 to 10,Cc1cccc(C(=O)n2nc(Nc3cccc(OCC(=O)NCC4COC(C)(C)O4)c3)nc2N)c1 (stereo not shown) [compound 148]
7,1 to 10,"Cc1cccc(C(=O)n2nc(Nc3cccc(OCC(=O)NCC(O)CO)c3)nc2N)c1 (stereo not shown) [compound 153, 5-amino-3-[3-(N-(2,3-dihydroxypropyl)amino)carbonylmethoxy]-phenylamino-1-(3-(methyl)phenyl)carbonyl-1H-1,2,4-triazole]"
8,1 to 10,"Nc1nc(Nc2ccc3c(c2)OCCO3)nn1C(=O)c1ccc(O)cc1 [compound 162, 5-amino-3-(1,4-benzodioxan-6-yl)amino-1-(4-(hydroxy)phenyl)carbonyl-1H-1,2,4-triazole]"
9,> 20,"Cc1cccc(C(=O)n2nc(Nc3cccc(OCC(=O)NC4CCCCC4)c3)nc2N)c1 [compound 165, 5-amino-3-[3-[cyclohexylaminocarbonylmethoxy]phenylamino]-1-(3-(methyl)phenyl)carbonyl-1H-1,2,4-triazole]"

# The remaining lines, values behind:
row,Compound,IC50 [µM]
1,"Cc1ccc(Nc2nc(N)n(C(=O)c3ccc(C)cc3)n2)cc1 [compound 131, 5-amino-3-[4-(methyl)phenylamino]-1-(4-(methyl)phenyl)carbonyl-1H-1,2,4-triazole]",> 20
2,"COc1ccc(Nc2nc(N)n(C(=O)c3ccc(C)cc3)n2)cc1 [compound 132, 5-amino-3-[4-(methoxy)phenylamino]-1-(4-(methyl)phenyl)carbonyl-1H-1,2,4-triazole]",1 to 10
3,"COC(=O)COc1cccc(Nc2nc(N)n(C(=O)c3ccc(OC(C)C)cc3)n2)c1 [compound 135, 5-amino-1-(4-(iso-propoxy)phenyl)carbonyl-3-[3-(methoxycarbonylmethoxy)phenylamino]-1H-1,2,4-triazole]",1 to 10
4,"Cc1ccc(C(=O)n2nc(Nc3ccccc3)nc2N)cc1 [compound 137, 5-amino-1-(4-(methyl)phenyl)carbonyl-3-phenylamino-1H-1,2,4-triazole]",> 20
5,"CC(C)Oc1ccc(C(=O)n2nc(Nc3cccc(OCC(F)(F)F)c3)nc2N)cc1 [compound 139, 5-amino-1-(4-(iso-propoxy)phenyl)carbonyl-3-[3-(2,2,2-trifluoroethoxy)phenylamino]-1H-1,2,4-triazole]",> 20
6,"Nc1nc(Nc2ccc3c(c2)OCCO3)nn1C(=O)c1ccc(OCc2ccccc2)cc1 [compound 142, 5-amino-1-(4-(benzyloxy)phenyl)carbonyl-3-(1,4-benzodioxan-6-yl)amino-1H-1,2,4-triazole]",1 to 10
7,"COc1ccccc1Nc1nc(N)n(C(=O)c2ccc(C)cc2)n1 [compound 143, 5-amino-3-[2-(methoxy)phenylamino]-1-(4-(methyl)phenyl)carbonyl-1H-1,2,4-triazole]",> 20
8,"Cc1ccc(C(=O)n2nc(Nc3ccccc3C)nc2N)cc1 [compound 144, 5-amino-3-[2-(methyl)phenylamino]-1-(4-(methyl)phenyl)carbonyl-1H-1,2,4-triazole]",> 20
9,"Nc1nc(Nc2ccc3c(c2)OCCO3)nn1C(=O)c1ccc(OCCN2CCOCC2)cc1 [compound 149, 5-amino-3-(1,4-benzodioxan-6-yl)amino-1-[4-[2-(morpholin-4-yl)ethoxy]phenyl]carbonyl-1H-1,2,4-triazole]",1 to 10
10,"Nc1nc(Nc2ccc3c(c2)OCCO3)nn1C(=O)c1cccc(OCCN2CCOCC2)c1 [compound 150, 5-amino-3-(1,4-benzodioxan-6-yl)amino-1-[3-[2-(morpholin-4-yl)ethoxy]phenyl]carbonyl-1H-1,2,4-triazole]",> 20
11,"CC(C)Oc1ccc(C(=O)n2nc(Nc3ccc(OC4CCCC4)cc3)nc2N)cc1 [compound 151, 5-amino-3-[4-(cyclopentoxy)phenylamino]-1-(4-(iso-propoxy)phenyl)carbonyl-1H-1,2,4-triazole]",> 20
12,"CC(C)Oc1ccc(C(=O)n2nc(Nc3ccc(OCC(F)(F)F)cc3)nc2N)cc1 [compound 152, 5-amino-1-(4-(iso-propoxy)phenyl)carbonyl-3-[4-(2,2,2-trifluoroethoxy)phenylamino]-1H-1,2,4-triazole]",> 20
13,"Nc1nc(Nc2ccc3c(c2)OCCO3)nn1C(=O)c1cccc(OCc2ccccc2)c1 [compound 156, 5-amino-1-(3-(benzyloxy)phenyl)carbonyl-3-(1,4-benzodioxan-6-yl)amino-1H-1,2,4-triazole]",10 to 20
14,"COC(=O)COc1ccc(Nc2nc(N)n(C(=O)c3ccc(OC(C)C)cc3)n2)cc1 [compound 157, 5-amino-1-(4-(iso-propoxy)phenyl)carbonyl-3-[4-(methoxycarbonylmethoxy)phenylamino]-1H-1,2,4-triazole]",1 to 10
15,"CC(C)Oc1ccc(C(=O)n2nc(Nc3ccc(OCCC4OCCO4)cc3)nc2N)cc1 [compound 158, 5-amino-3-[4-[2-(1,3-dioxolan-2-yl)ethoxy]phenylamino]-1-(4-(iso-propoxy)phenyl)carbonyl-1H-1,2,4-triazole]",1 to 10
16,CC(C)Oc1ccc(C(=O)n2nc(Nc3ccc(OCCN4CCOCC4)cc3)nc2N)cc1 [compound 159],< 1
17,CC(C)Oc1ccc(C(=O)n2nc(Nc3ccc(OCCN4CCCCC4)cc3)nc2N)cc1 [compound 163],< 1
18,"Nc1nc(Nc2ccc3c(c2)OCCO3)nn1C(=O)c1cccc(O)c1 [compound 166, 5-amino-3-(1,4-benzodioxan-6-yl)-amino-1-(3-(hydroxy)phenyl)carbonyl-1H-1,2,4-triazole]",1 to 10

# Reference: US8389557B2, “Triazole derivatives useful as Axl inhibitors” (Rigel Pharmaceuticals, Inc., priority 2005, dated 2013)
